# Reference: patent US20240058443A1, “PREVENTION OR MITIGATION OF NK CELL ENGAGING AGENT-RELATED ADVERSE EFFECTS” (Hoffmann-La Roche Inc., priority 2021, published 2024)
# What was measured:
# [1] = test system: cytokine release induced via FcγR signaling; assay: Whole blood assay: obinutuzumab-induced cytokine release, serum cytokines analyzed by Luminex; format: cell-based; conditions: for levels of IFN-γ: FIG. 2A; for levels of TNF-α: FIG. 2C; for levels of MCP-1: FIG. 2F; for cytokine release: overall statement, whole blood, obinutuzumab; for cytokine release induced by an NK cell engaging antibody: summary statement of the description, no conditions given
# Method: FIG. 2. Effect of 100 nM ruxolitinib (ruxo), 100 nM sirolimus (siro), 100 nM dasatinib (dasa) on obinutuzumab-induced IFN-γ (FIG. 2A), IL-2 (FIG. 2B), TNF-α (FIG. 2C), IL-6 (FIG. 2D), IL-8 (FIG. 2E) and MCP-1 (FIG. 2F) for 100, 10, 1 and 0.1 μg/mL obinutuzumab in a whole blood assay. Fresh whole blood was incubated with 100, 10, 1 and 0.1 μg/mL obinutuzumab or PGLALA IgG in the presence and absence of 100 nM ruxolitinib, 100 nM sirolimus and 100 nM dasatinib for 48 hours. The PGLALA IgG has a silent Fc region and is a negative control. At 24 hours, serum was collected and cytokines were analyzed by Luminex. Mean of n=2 donors.
# (§1) The CD20-targeting, effector-enhanced antibody obinutuzumab (Gazyva®) depletes B cells via FcγR signaling, and can be associated with a risk of infusion reaction characterized by cytokine release induced via FcγR signaling. To assess whether the mTOR inhibitor sirolimus, the JAK1/2 inhibitor ruxolitinib and the Src inhibitor dasatinib can prevent cytokine release induced via FcγR signaling, a whole blood assay using escalating doses of obinutuzumab in the presence and absence of sirolimus, ruxolitinib and dasatinib was conducted. A corresponding anti-CD20 IgG with a silent Fc portion (comprising “PGLALA” mutations L234A, L235A, P329G (Kabat EU numbering)) was used as a negative control (“PGLALA IgG”). In this assay, fresh whole blood is incubated together with concentrations of obinutuzumab ranging from 100 μg/mL to 0.1 μg/mL in the presence and absence of 100 nM sirolimus, 100 nM ruxolitinib and 100 nM dasatinib. To assess the impact of the different kinase inhibitors on cytokine release, serum was collected at 24 hours and cytokines were analyzed by Luminex. To assess the impact of the different kinase inhibitors on B cell depletion, blood was lysed at 48 hours and B cell depletion was measured by flow cytometry.
# [2] = test system: CD19+ B cell; assay: Whole blood assay: obinutuzumab-induced B cell depletion measured by flow cytometry; format: cell-based; conditions: for B cell depletion induced by obinutuzumab: 100 nM inhibitor, fresh whole blood, obinutuzumab 100 to 0.1 μg/mL, 48 hours, FIG. 1; for target cell killing mediated by NK cell engaging antibody: summary statement of the description, no conditions given
# Method: FIG. 1. Effect of 100 nM ruxolitinib (ruxo), 100 nM sirolimus (siro), 100 nM dasatinib (dasa) on obinutuzumab-induced CD19^+ B cell depletion in a whole blood assay. Fresh whole blood was incubated with 100, 10, 1 and 0.1 μg/mL obinutuzumab or PGLALA IgG in the presence and absence of 100 nM ruxolitinib, 100 nM sirolimus and 100 nM dasatinib for 48 hours. The PGLALA IgG has a silent Fc region and is a negative control. At 48 hours, blood was collected and lysed and the percentage of CD19^+ B cell among live cells was measured by flow cytometry. Mean of n=2 donors.
# as §1
# [3] = 100 nM inhibitor, fresh whole blood, obinutuzumab 100 to 0.1 μg/mL, serum at 24 hours
# [4] = 100 nM inhibitor, fresh whole blood, obinutuzumab 100 to 0.1 μg/mL, serum at 24 hours, FIG. 2D, first IL-6 of the list
# [5] = 100 nM inhibitor, fresh whole blood, obinutuzumab 100 to 0.1 μg/mL, serum at 24 hours, second IL-6 of the list
Structure (SMILES),"levels of IFN-γ [1, 3]","levels of IL-2 ([1]; 100 nM inhibitor, fresh whole blood, obinutuzumab 100 to 0.1 μg/mL, serum at 24 hours, FIG. 2B)","levels of TNF-α [1, 3]","levels of IL-6 [1, 4]","levels of MCP-1 [1, 3]","levels of IL-6 [1, 5]","potency in reducing cytokine release among the three classes of kinase inhibitors ([1]; comparison of Src, mTOR and JAK1/2 inhibitor at 100 nM)",cytokine release ([1]; 100 nM inhibitor),cytokine release induced by an NK cell engaging antibody [1],B cell depletion induced by obinutuzumab [2],target cell killing mediated by NK cell engaging antibody [2]
"Cc1nc(Nc2ncc(C(=O)Nc3c(C)cccc3Cl)s2)cc(N2CCN(CCO)CC2)n1 [dasatinib, N-(2-chloro-6-methylphenyl)-2[[6[4-(2-hydroxyethyl)-1-piperazinyl]-2-methyl-4-pyrimidinyl]amino]-5-thiazole carboxamide monohydrate]",strongly reduced,strongly reduced,strongly reduced,strongly reduced,strongly reduced,strongly reduced,most potent,reduced cytokine release,potently prevent,did not prevent,retaining
"CO[C@H]1C[C@@H]2CC[C@@H](C)[C@@](O)(O2)C(=O)C(=O)N2CCCC[C@H]2C(=O)O[C@H]([C@H](C)C[C@@H]2CC[C@@H](O)[C@H](OC)C2)CC(=O)[C@H](C)/C=C(\C)[C@@H](O)[C@@H](OC)C(=O)[C@H](C)C[C@H](C)/C=C/C=C/C=C/1C [sirolimus, Sirolimus]",reduced,–,reduced,reduced,reduced,reduced,–,reduced cytokine release,potently prevent,did not prevent,retaining
"CO[C@H]1C[C@@H]2CC[C@@H](C)[C@@](O)(O2)C(=O)C(=O)N2CCCC[C@H]2C(=O)O[C@H]([C@H](C)C[C@@H]2CC[C@@H](OCCO)[C@H](OC)C2)CC(=O)[C@H](C)/C=C(\C)[C@@H](O)[C@@H](OC)C(=O)[C@H](C)C[C@H](C)/C=C/C=C/C=C/1C [everolimus, Everolimus]",–,–,–,–,–,–,–,–,potently prevent,–,retaining
"CO[C@H]1C[C@@H]2CC[C@@H](C)[C@@](O)(O2)C(=O)C(=O)N2CCCC[C@H]2C(=O)O[C@H]([C@H](C)C[C@@H]2CC[C@@H](OC(=O)C(C)(CO)CO)[C@H](OC)C2)CC(=O)[C@H](C)/C=C(\C)[C@@H](O)[C@@H](OC)C(=O)[C@H](C)C[C@H](C)/C=C/C=C/C=C/1C [temsirolimus, Temsirolimus]",–,–,–,–,–,–,–,–,potently prevent,–,retaining
"N#CC[C@H](C1CCCC1)n1cc(-c2ncnc3[nH]ccc23)cn1 [ruxolitinib, Ruxolitinib]",reduced,–,reduced,reduced,reduced,reduced,–,reduced cytokine release,potently prevent,did not prevent,retaining
